Article PMC7831015, “Evaluation of the Hemocompatibility and Anticancer Potential of Poly(ε-Caprolactone) and Poly(3-Hydroxybutyrate) Microcarriers with Encapsulated Chrysin” (Pharmaceutics, 2021)

What was measured:
human blood samples = assay: Blood profile analysis (hematological parameters); assay type: cell-based; conditions: human blood, 5, 80 and 200 µg·mL^−1, 37 °C, 1 h
Method: (§1) Human blood samples were freshly collected from ten healthy volunteers and divided into tubes containing the anticoagulant agent ethylenediamine tetraacetic acid (EDTA), according to the protocols approved by the National Institute of Health and the Food and Drug Administration.
The blood profile analysis was performed using an automatic hematological analyzer Beckman Coulter ACT 5 Diff OV, (Beckman Coulter International S.A., Nyon, Switzerland) for the determination of different hematological parameters, such as red blood cells (RBCs) count ([…]), hemoglobin (HGB) g·dL^−1), hematocrit (HCT) (%), mean corpuscular volume (MCV) (in femtoliters, fl), mean corpuscular hemoglobin (MCH) (pg), mean corpuscular hemoglobin concentration (MCHC), red cell distribution width (RDW), white blood cells (WBCs) (10^9/L), neutrophils (NE) (%), lymphocytes (LY) (%), monocytes (MO) (%), eosinophils (EO) (%), basophils (BA) (%), and platelets (PLTs) (10^9/L), after exposure to free chrysin, ChrPCL/PVAMCs, or ChrPHB/PVAMCs, and without exposure to any agent. Briefly, the sample preparation was performed as follows: A 100 µL sample of whole blood was added to 900 µL of PBS. Then, either chrysin, ChrPCL/PVAMCs, or ChrPHB/PVAMCs were added to this diluted blood to achieve three concentrations: low, high, and very high (5, 80, and 200 µg·mL^−1, respectively). […]

human RBCs = assay: Hemolysis assay; assay type: cell-based
Method: as §1
(§2) The hemocompatibility of free chrysin and the produced micro-formulations was evaluated via the hemolysis assay performed using a biochemical analyzer Konelab 30, Thermo Scientific. The experimental procedure was as follows: Whole blood samples were centrifuged for 10 min at 1500 rpm to remove plasma. The obtained cell pellets were washed three times with sterile PBS (10 mM, pH 7.2) to separate the red blood cells (RBCs) from other blood components, such as the white blood cells, plasma proteins, and excess antibodies, centrifuged and finally re-suspended at 5 mL PBS. The hemolysis assay was performed by adding 100 µL of the RBC suspension to 900 µL of PBS, containing several concentrations (5, 20, 40, 60, 80, 100, 200, 300, 400, 500 µg·mL^−1) of free chrysin, ChrPCL/PVAMCs, or ChrPHB/PVAMCs. The positive (+) control sample of hemolysis used (100% hemolysis) consisted of 900 µL of ultrapure water and 100 µL of washed RBCs. The negative (−) control sample (0% hemolysis) consisted of 900 µL PBS and 100 µL of washed RBCs. PBS and PBS containing either free chrysin, ChrPCL/PVAMCs, or ChrPHB/PVAMCs were used as blank samples. All samples were incubated for 24 h at 37 °C, under agitation at 120 rpm. After incubation, they were centrifuged at 700 rpm for 5 min, and the absorbance of the supernatant was measured at 541 nm. The % hemolysis was calculated after subtracting the blank values, and by setting the control (+) value as 100% of hemolysis. The absorbance was transformed to hemolysis percentage using the following equation: Percentage of hemolysis (%)=ODSample − ODNegative control/ODPositive control − ODNegative control where OD stands for Optical density.

Hemolysis assay = assay type: cell-based, human; conditions: human, washed human red blood cells (RBC suspension), pH 7.2, 24 h, 37 °C, free chrysin solution in DMSO (5%), read-out: Percentage of Hemolysis
Method: as §1, §2

[1] = system: MDA-MB-231 human breast cancer cells; assay: MTT cell viability assay; assay type: cell-based; conditions: MDA-MB-231, 48 h, for MCs expressed as encapsulated chrysin content, read-out: IC50 (inhibitory concentration of chrysin for 50% viability)
Method: Epithelial human breast cancer MDA-MB-231 cells were grown in Dulbecco’s Modified Eagle′s—Medium (DMEM) growth medium (pH 7.4) supplemented with 10% Fetal Bovine Serum (FBS) and 50 µg·mL^−1 gentamycin at 37 °C in a 5% humidified CO2 incubator.
In the present study, the cell viability of MDA-MB-231 breast cancer line was evaluated via the MTT assay. The method relies on the conversion of the yellow 3-(4,5-dimethylthiazol-2-yl)-2,5-diphenyl tetrazolium bromide (MTT) to purple formazan crystals. The reduction of MTT is catalyzed by the mitochondrial dehydrogenase enzyme and is therefore a measure for cell viability. MDA-MB-231 cells were exposed to free chrysin, ChrPCL/PVAMCs, or ChrPHB/PVAMCs in their exponential phase of growth. More specifically, in a 96-well plate (Corning, NY, USA), a number of 1 × 10^4 cells/well were seeded, and after 24 h (80% confluency) they were treated with different concentrations of ChrPCL/PVAMCs or ChrPHB/PVAMCs ranging between 0–400 µg·mL^−1. Due to the different loading capacity of chrysin in each type of MCs, free chrysin (dissolved in DMSO) was added accordingly, in equal concentrations (µM), with the encapsulated chrysin in the MCs, as estimated in Section 3.5. […] Finally, a Synergy HTX BioTEK plate reader (with a reference wavelength of 630 nm) was used to determine the absorbance measurement at 545 nm. […]

O=c1cc(-c2ccccc2)oc2cc(O)cc(O)c12 [chrysin, 5,7-dihydroxyflavone]
PLT values compared to negative control (human blood samples): significant decrease
hematological parameters (RBCs, HGB, HCT, MCV, MCH, MCHC, RDW, WBCs, NE, LY, MO, EO, BA) compared to negative control (human blood samples): did not display significant deviation
hemoglobin release from RBCs (micrographs) (human RBCs; 500 µg·mL^−1): hemoglobin release from RBCs is obvious
hemolytic activity (human RBCs; concentrations between 100 and 500 µg·mL^−1, diluted in 5% DMSO): greater than 5%
hemolysis at 24 h, 5 µg·mL^−1 (Hemolysis assay; 5 µg·mL^−1): 1.2%
hemolysis at 24 h, 20 µg·mL^−1 (Hemolysis assay; 20 µg·mL^−1): 2.1%
hemolysis at 24 h, 40 µg·mL^−1 (Hemolysis assay; 40 µg·mL^−1): 2.7%
hemolysis at 24 h, 60 µg·mL^−1 (Hemolysis assay; 60 µg·mL^−1): 3%
hemolysis at 24 h, 80 µg·mL^−1 (Hemolysis assay; 80 µg·mL^−1): 3.5%
hemolysis at 24 h, 100 µg·mL^−1 (Hemolysis assay; 100 µg·mL^−1): 6.8%
hemolysis at 24 h, 200 µg·mL^−1 (Hemolysis assay; 200 µg·mL^−1): 7%
hemolysis at 24 h, 300 µg·mL^−1 (Hemolysis assay; 300 µg·mL^−1): 7.3%
hemolysis at 24 h, 400 µg·mL^−1 (Hemolysis assay; 400 µg·mL^−1): 7.9%
hemolysis at 24 h, 500 µg·mL^−1 (Hemolysis assay; 500 µg·mL^−1): 8.2%
IC50 [1]: 112 µM
